The text below walks through data of patent publication US20060257388A1, “Drug delivery systems for stabilized formulations of alpha adrenergic receptor antagonists and the uses thereof” (priority 2005, published 2006).

Molecules are shown by their SMILES. Structures can show the parent of a compound that is named as a salt.

The test system of one data set is healthy adult volunteers. Nature of the data set: Reversal of soft-tissue anesthesia after inferior alveolar nerve block, proof-of-principle trial (Example 3). It is filed as in vivo, human. The conditions noted are these: 0.2 mg in 1.8 ml. As for the experimental part:
The objective of this proof-of-principle trial was to evaluate the feasibility of reversing soft-tissue anesthesia by pharmacologically blocking the effects of epinephrine. […] Subjects self-evaluated the return of normal sensation in their lip, chin, tongue, nose, and teeth by palpations at 5-minute intervals starting at 5 minutes before the study drug injection and continuing for approximately 4-5 hours. To avoid biased responding, subjects were told that they could not leave the clinic for 8 hours after the last injection. Responses for soft tissues were categorized as (1) numb (no feeling), (2) feeling of pins and needles, or (3) normal sensation. Responses for teeth were (1) numb (no feeling) or (2) normal sensation. Safety was evaluated through reports of adverse events, measurement of vital signs and two-lead electrocardiograms before, during, and after the injections of anesthetic and study drug, and through pain assessments using visual analog scales.

The subject of a further data set is human. The conditions noted are these: solution containing 0.05 mg/ml; cited from earlier work.
The nature of data set [1]: Effect of additives on stability, 60° C. (HPLC). The conditions noted are these: for Phentolamine Concentration: 10 mM Sodium Acetate, pH 3.5, 60° C. It is filed as physicochemical. An excerpt:
(§1) The drug is monitored at a detection wavelength of 232 nm.
The additives in this study are selected from five groups of injectable excipients namely, tonicity modifiers (NaCl and d-mannitol), metal chelators (EDTA), antioxidants (sodium metabisulfite), complexing agents α-cyclodextrin and niacinamide) and solvents (glycerol and polypropylene glycol). A tonicity modifier is required for adjusting the phentolamine mesylate solution to isotonic. […] Complexing agents were applied in the hope that a possible formation of an inclusion complex (by α-cyclodextrin) or stacking complex (by niacinamide) with phentolamine would modify the rate of hydrolytic degradation of the drug substance. Solvents were added to reduce the dielectric constant of the vehicle and were intended to slow the rate of degradation due to solvent polarity.
The pH value of the solutions was readjusted to pH 3.5, as required. The 25% glycerol (25 g in 100 ml total volume with water) and 25% polypropylene glycol (25 g in 100 ml total volume with water) solutions had their buffer strength adjusted by addition of acetic acid followed by addition of 2 N NaOH for pH adjustment to pH 3.5 followed by addition of the drug to 0.1 mg/ml.
All samples were placed in 10 ml glass serum vials, stoppered with rubber closures with an inert coating (Dalkyo Flurotec by WEST Pharmaceutical), and sealed with flip-top caps after sampling. Vials were placed at 60° C. after the weights were recorded.
Sampling occurred at the initial time point and on days 2, 7, and 14. Vials were weighed, sampled, sealed, re-weighed, and replaced under the selected storage condition until testing at the subsequent time point. Records indicate no significant weight loss during storage.

Data set [2] can be described thus: Narrow-range pH-stability profiling at 60° C. (HPLC). The data set is classed as physicochemical. The conditions noted are these: 50 mM sodium phosphate, FIG. 2. How it is done: as §1
All samples were stored in the dark. […] All samples were analyzed without dilution.
The phosphate buffers were prepared as previously described. The samples were analyzed by HPLC for phentolamine concentration and purity at an initial time point and after 2, 7 and 14 days of storage at 60° C. Measurement of sample pH was done after HPLC analysis.
In order to precisely define the most favorable pH, a stronger stressing condition was needed to generate a greater extent of degradation in the lower pH region. For this study, the incubation condition was shifted from 40° C. to 60° C. Since the extent of degradation after fourteen (14) days was still less than twenty percent (20%) in most samples, zero-order rate kinetics was used for the degradation curves (concentration versus time). The calculated rate constant was plotted against pH to provide the narrow-range pH-stability profile.

For data set [3], the system named is healthy adult volunteer subjects. The experiment in a line: Dose range study, reversal of local anesthesia after mandibular nerve block (Example 4). It is filed as in vivo, human. An excerpt:
The objectives of this study were to evaluate the safety and efficacy of a range of doses of phentolamine in reversing local anesthesia after a mandibular nerve block. […] Subjects palpated their lower lip, chin, tongue, and teeth every five minutes for the next five hours after injections.

The subject of data set [4] is patients. Particulars: systemic doses, package insert; cited from earlier work.
Data set [5] can be described thus: Effect of buffer concentration on stability, sodium acetate pH 3.5, 60° C. (HPLC, pH). It is filed as physicochemical. How it is done: as §1
Tightly sealed glass vials containing the test solutions were placed in an oven at 40° C. or 60° C. All samples were stored in the dark. Aliquots were removed at designated time points for HPLC analysis and pH measurement. All samples were analyzed without dilution.
In conjunction with HPLC analysis, pH was measured. The measurement was performed using the same samples as used for the HPLC analysis. The pH meter was calibrated using pH 4.00 and 7.00 buffer standards prior to each measurement.
Samples were incubated at 60° C. with scheduled testing performed at day 0, 2, 7, and 14. The various buffer concentrations were prepared by diluting the 50 mM buffer with water and re-examining the pH value to determine if the pH 3.5 was constant. Measurements of pH were performed after HPLC analysis of the samples.

The test system of data set [6] is healthy adult volunteer subjects. The experiment in a line: Dose range study, reversal of local anesthesia after maxillary infiltration (Example 5). The data set is classed as in vivo, human. As for the experimental part:
The objectives of this study were to evaluate the safety and efficacy of a range of doses of phentolamine in reversing local anesthesia after a maxillary infiltration. Four groups of eight healthy adult volunteer subjects were given an infiltration of the lateral incisor using one 1.8 ml cartridge of lidocaine 2% with epinephrine 1:100,000. […] Subjects palpated their upper lip, nose, and teeth every five minutes for the next five hours after injections.

For data set [7], the system named is patients. The conditions noted are these: 0.5-1.5 mg, patients pretreated with lignocaine admixed with epinephrine; cited from earlier work.
The mark [8] stands for this setting: 0.02 mg, 0.06 mg, 0.4 mg in 1.8 ml.
Setting [9] is: 0.02 mg, 0.08 mg, 0.4 mg in 1.8 ml.

Consider `Cc1ccc(N(CC2=NCCN2)c2cccc(O)c2)cc1` [Phentolamine Mesylate], for which, in the data set with healthy adult volunteers, the adverse effects entry is “Adverse effects were few and no differences were noted between the active and placebo groups”. Further, the electrocardiogram result (with healthy adult volunteers; in [3] (setting [8]); in data set [6] (setting [9])) was “no abnormalities in the electrocardiogram” each time. In the data set on healthy adult volunteers (60 minutes after inferior alveolar nerve block with 2% lidocaine, 1:100,000 epinephrine, lip, chin, tongue, nose, teeth), the “duration of anesthesia versus saline (in words)” value is on record as “significantly (p<0.01) reduced the duration of anesthesia in each tissue”. Besides, the “reversal of local anesthetic effect (in words)” value in the data set with human is “rapidly reverse the effect of a local anesthetic”. Further, the “Phentolamine Concentration” value in data set [1] (Additive Glycerol, 25% w/v, Day 0) was determined as 126 µg/mL; in data set [1] (Additive Glycerol, 25% w/v, Day 2), 123 µg/mL; in [1] (Additive Glycerol, 25% w/v, Day 14), 115 µg/mL; in data set [1] (Additive Polypropylene glycol, 25% w/v, Day 0) it was 118 µg/mL; in data set [1] (Additive Polypropylene glycol, 25% w/v, Day 2), 121 µg/mL; in data set [1] (Additive Polypropylene glycol, 25% w/v, Day 7), 113 µg/mL. For the same compound, the “Phentolamine Concentration” value is 101 µg/mL in data set [1] (Additive Sodium metabisulfite, 0.5 mg/ml, Day 2); 102 µg/mL in data set [1] (Additive α-Cyclodextrin, 50 mg/ml, Day 0); 101 µg/mL in [5] (50 mM Sodium Acetate pH 3.5, 60° C., Day 2). The “impact of additives on stability (in words)” value in [1] (d-Mannitol and disodium EDTA) was “improve stability based on the rate constant or to exhibit no negative impact based on purity values”. Also, the “pH at which phentolamine was most stable” value in data set [2] is listed as 3.5. For the same compound, the adverse events result is “Adverse events were few and no differences were noted between the active and placebo groups” in data set [3] (setting [8]); “Adverse events were few and no differences were noted between the active and placebo groups” in [6] (setting [9]). The “duration of anesthesia versus saline placebo (in words)” value in data set [3] (all doses tested (0.02 mg, 0.06 mg, 0.4 mg in 1.8 ml), 60 minutes after inferior alveolar nerve block, lower lip, chin, tongue, teeth) is on record as “significantly (p<0.05) reduced the duration of anesthesia in each measured tissue”; in [6] (all doses tested (0.02 mg, 0.08 mg, 0.4 mg in 1.8 ml), 40 minutes after lateral incisor infiltration, upper lip, nose, teeth), “significantly (p<0.01) reduced the duration of anesthesia in each measured tissue”. Moreover, the side effect warning entry with patients [4] is “Myocardial infarction, cerebrovascular spasm, and cerebrovascular occlusion have been reported”. In data set [5] (5, 10 and 50 mM sodium acetate), the “rate of degradation versus un-buffered control (in words)” value was “comparable and was an improvement over the un-buffered control”. Moreover, the “duration of anesthesia (in words)” value in the data set on patients [7] is on record as “reduction in the duration of anesthesia with increasing amounts”.
